Source: patent publication US11214594B2, “Antimicrobial peptide having synergistic antibacterial effect with antibiotics on multidrug resistant bacteria, and use thereof” (priority 2016, dated 2022)
Converted amounts (≈) assume the structure as drawn. Where a SMILES comes first, the peptide text is derived from it.

What was measured:
A. baumannii [1] = test: MIC of antimicrobial peptide during combined treatment with antibiotic; type: cell-based, Acinetobacter baumannii; settings: vancomycin […] (Conc./MIC 1/8)
How it was run: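 Antibiotic MIC came from antibiotic dilutions added to bacteria (2×10^6 CFU/ml, MH medium) already combined with peptide serially diluted 2:1 from its own MIC. Swapping the roles of the two agents gave the peptide MIC.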

E. coli = test: MIC of antibiotic during combined treatment with antimicrobial peptide; type: cell-based, Escherichia coli; settings: for Antibiotic MIC, Erythromycin / Antibiotic MIC, Linezolid / Antibiotic MIC, Vancomycin: E. coli
How it was run: (§1)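 Antibiotic diluted in MH medium, dispensed per well with peptide; setup repeated with roles reversed; MIC read per combination.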

A. baumannii [2] = test: as above; type: cell-based, Acinetobacter baumannii; settings: for Antibiotic MIC, Erythromycin / Antibiotic MIC, Linezolid / Antibiotic MIC, Vancomycin: A. baumannii
How it was run: as §1

MDRAB 12036 = type: cell-based, Acinetobacter baumannii
How it was run: (§2)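 MIC read-out = lowest peptide level with no bacterial proliferation. Strains diluted in MH medium to 2×10^6 CFU; peptide twofold serial dilutions in MH added 1:1 in microtiter wells.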

MDRST 8007 = test: Minimal inhibitory concentration (MIC), single agent; type: cell-based, Salmonella typhimurium; settings: agent alone
How it was run: as §2

B. subtilis = test: microbe, parasite or virus in culture; type: cell-based, Bacillus subtilis
How it was run: as §2

[3] = combined with peptide at 1 μg/ml
[4] = combined with peptide at 2 μg/ml
[5] = combined with peptide at 4 μg/ml
[6] = combined with peptide at 6 μg/ml
[7] = combined with peptide at 8 μg/ml
[8] = combined with peptide at 16 μg/ml
[9] = combined with peptide at 32 μg/ml
[10] = combined with peptide at 64 μg/ml

Structure (SMILES): CC[C@H](C)[C@H](NC(=O)[C@H](CCCCN)NC(=O)[C@H](Cc1c[nH]c2ccccc12)NC(=O)[C@@H](N)CCCNC(=N)N)C(=O)N[C@@H](Cc1ccccc1)C(=O)N[C@@H](CCCCN)C(=O)N[C@@H](CCCCN)C(=O)N[C@H](C(=O)N1CCC[C@H]1C(=O)N[C@@H](CCCCN)C(=O)N[C@@H](Cc1ccccc1)C(=O)N[C@@H](CC(C)C)C(=O)N[C@@H](Cc1c[nH]cn1)C(=O)N[C@@H](CO)C(=O)N[C@@H](C)C(=O)N[C@@H](CCCCN)C(=O)N[C@@H](CCCCN)C(=O)N[C@@H](Cc1c[nH]c2ccccc12)C(N)=O)[C@@H](C)CC [PapMA-2, RWK IFK KIP KFL HSA KKW-NH2] (H-RWKIFKKIPKFLHSAKKW-NH2; N-terminus assumed)
- Peptide MIC during treatment with antibiotic (A. baumannii [1]): 2 mg/L
- Synergistic effect of antibacterial activity with existing antibiotics compared with PapMA-1 (E. coli; E. coli and MDREC1229): higher level than the PapMA-1 peptide
- Antibiotic MIC, Erythromycin (E. coli; erythromycin combined with peptide at 1 μg/ml): 64 mg/L
- Antibiotic MIC, Erythromycin (E. coli; erythromycin combined with peptide at 2 μg/ml): 32 mg/L
- Antibiotic MIC, Erythromycin (E. coli; erythromycin combined with peptide at 4 μg/ml): 16 mg/L
- Antibiotic MIC, Erythromycin (E. coli; erythromycin combined with peptide at 6 μg/ml): 2 mg/L
- Antibiotic MIC, Erythromycin (E. coli; erythromycin combined with peptide at 8 μg/ml): 0.5 mg/L
- Antibiotic MIC, Erythromycin (E. coli; erythromycin combined with peptide at 16 μg/ml): 0.25 mg/L
- Antibiotic MIC, Erythromycin (E. coli; erythromycin combined with peptide at 32 μg/ml): 0.125 mg/L
- Antibiotic MIC, Erythromycin (E. coli; erythromycin combined with peptide at 64 μg/ml): 0 mg/L
- Antibiotic MIC, Linezolid (E. coli; linezolid combined with peptide at 1 μg/ml): 128 mg/L
- Antibiotic MIC, Linezolid (E. coli; linezolid combined with peptide at 2 μg/ml): 64 mg/L
- Antibiotic MIC, Linezolid (E. coli; linezolid combined with peptide at 4 μg/ml): 16 mg/L
- Antibiotic MIC, Linezolid (E. coli; linezolid combined with peptide at 6 μg/ml): 16 mg/L
- Antibiotic MIC, Linezolid (E. coli; linezolid combined with peptide at 8 μg/ml): 8 mg/L
- Antibiotic MIC, Linezolid (E. coli; linezolid combined with peptide at 16 μg/ml): 8 mg/L
- Antibiotic MIC, Linezolid (E. coli; linezolid combined with peptide at 32 μg/ml): 4 mg/L
- Antibiotic MIC, Linezolid (E. coli; linezolid combined with peptide at 64 μg/ml): 0 mg/L
- Antibiotic MIC, Vancomycin (E. coli; vancomycin combined with peptide at 1 μg/ml): >128 mg/L
- Antibiotic MIC, Vancomycin (E. coli; vancomycin combined with peptide at 2 μg/ml): >128 mg/L
- Antibiotic MIC, Vancomycin (E. coli; vancomycin combined with peptide at 4 μg/ml): >128 mg/L
- Antibiotic MIC, Vancomycin (E. coli; vancomycin combined with peptide at 6 μg/ml): 64 mg/L
- Antibiotic MIC, Vancomycin (E. coli; vancomycin combined with peptide at 8 μg/ml): 32 mg/L
- Antibiotic MIC, Vancomycin (E. coli; vancomycin combined with peptide at 16 μg/ml): 8 mg/L
- Antibiotic MIC, Vancomycin (E. coli; vancomycin combined with peptide at 32 μg/ml): 4 mg/L
- Antibiotic MIC, Vancomycin (E. coli; vancomycin combined with peptide at 64 μg/ml): 0 mg/L
- Lowering of the MIC value of the antibiotics mixed with peptide compared with PapMA-1 (E. coli; same peptide concentration as PapMA-1): twice to four times
- Synergistic effect of antibacterial activity with existing antibiotics compared with PapMA-1 (A. baumannii [2]; A. baumannii and MDRAB 12035): higher level than the PapMA-1 peptide
- Antibiotic MIC, Erythromycin (A. baumannii [2]; [3]): 16 mg/L
- Antibiotic MIC, Linezolid (A. baumannii [2]; [3]): >128 mg/L
- Antibiotic MIC, Vancomycin (A. baumannii [2]; [3]): >128 mg/L
- Antibiotic MIC, Erythromycin (A. baumannii [2]; [4]): 16 mg/L
- Antibiotic MIC, Linezolid (A. baumannii [2]; [4]): 64 mg/L
- Antibiotic MIC, Vancomycin (A. baumannii [2]; [4]): 128 mg/L
- Antibiotic MIC, Erythromycin (A. baumannii [2]; [5]): 8 mg/L
- Antibiotic MIC, Linezolid (A. baumannii [2]; [5]): 32 mg/L
- Antibiotic MIC, Vancomycin (A. baumannii [2]; [5]): 32 mg/L
- Antibiotic MIC, Erythromycin (A. baumannii [2]; [6]): 1 mg/L
- Antibiotic MIC, Linezolid (A. baumannii [2]; [6]): 16 mg/L
- Antibiotic MIC, Vancomycin (A. baumannii [2]; [6]): 16 mg/L
- Antibiotic MIC, Erythromycin (A. baumannii [2]; [7]): 0.125 mg/L
- Antibiotic MIC, Linezolid (A. baumannii [2]; [7]): 8 mg/L
- Antibiotic MIC, Vancomycin (A. baumannii [2]; [7]): 8 mg/L
- Antibiotic MIC, Erythromycin (A. baumannii [2]; [8]): 0 mg/L
- Antibiotic MIC, Linezolid (A. baumannii [2]; [8]): 0 mg/L
- Antibiotic MIC, Vancomycin (A. baumannii [2]; [8]): 0 mg/L
- Antibiotic MIC, Erythromycin (A. baumannii [2]; [9]): 0 mg/L
- Antibiotic MIC, Linezolid (A. baumannii [2]; [9]): 0 mg/L
- Antibiotic MIC, Vancomycin (A. baumannii [2]; [9]): 0 mg/L
- Antibiotic MIC, Erythromycin (A. baumannii [2]; [10]): 0 mg/L
- Antibiotic MIC, Linezolid (A. baumannii [2]; [10]): 0 mg/L
- Antibiotic MIC, Vancomycin (A. baumannii [2]; [10]): 0 mg/L
- Minimal inhibitory concentration MIC (MDRAB 12036): 16 mg/L (≈ 6.83 µM)
- Minimal inhibitory concentration MIC (MDRST 8007): 32 mg/L (≈ 13.7 µM)
- Minimal inhibitory concentration MIC (B. subtilis): >128 mg/L
